target: T1, rat B1R (Rattus norvegicus, UniProt P97583); experiment: FLIPR Ca2+ functional study on bradykinin receptor 1 (rB1R CHO K1 cells); assay type: cell-based; conditions: CHO-K1, % inhibition rat B1R at 10 μM, read-out: % inh. (rat B1R) 10 μM
T1 construct: expressed in transfected cells; host or cells: CHO K1 cells
T1 sequence (P97583 1-337): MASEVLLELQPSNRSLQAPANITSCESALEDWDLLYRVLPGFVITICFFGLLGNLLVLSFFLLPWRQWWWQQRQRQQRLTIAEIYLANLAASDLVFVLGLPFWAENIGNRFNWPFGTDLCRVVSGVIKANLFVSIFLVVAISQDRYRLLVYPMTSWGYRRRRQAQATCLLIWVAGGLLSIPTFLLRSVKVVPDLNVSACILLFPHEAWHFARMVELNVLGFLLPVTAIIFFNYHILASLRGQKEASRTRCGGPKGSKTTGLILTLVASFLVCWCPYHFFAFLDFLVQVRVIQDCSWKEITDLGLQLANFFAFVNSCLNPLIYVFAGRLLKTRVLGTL
Procedure, shortened: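 CHO K1 cells stably expressing human or rat B1R were loaded with Fluo-4 and read on FLIPR (ex 488/em 540 nm, peak counts). Test compound (10 μM, or a concentration range for IC50) was added first for % activation versus control agonist; after 10-20 min, EC80 Lys-Des-Arg9-bradykinin (human) or Des-Arg9-bradykinin (rat) was added, giving % inhibition of maximum. n=2-3, N≥2.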

inhibition at 10 µM [%]	Structure (SMILES)
83	COc1cc(C)c(S(=O)(=O)N2c3ccccc3C[C@H]2COc2ccnc(N(C)CCN3CCC(c4ccccc4)(N4CCCC4)CC3)n2)c(C)c1 [H_CC-072, [4-[[(2S)-1-[(4-methoxy-2,6-dimethyl-phenyl)sulfonyl]-2,3-dihydro-1H-indol-2-yl]-methoxy]-pyrimidin-2-yl]-methyl-[2-(4-phenyl-4-pyrrolidin-1-yl-piperidin-1-yl)-ethyl]-amine]
55	COc1cc(C)c(S(=O)(=O)N2CCCC(Oc3ccnc(N(C)CCCN4CCC(c5ccccc5)(N(C)C)CC4)n3)C2)c(C)c1 (centres unmarked) [H_CC-073, 3-(4-dimethylamino-4-phenyl-piperidin-1-yl)-propyl-[4-[1-[(4-methoxy-2,6-dimethyl-phenyl)sulfonyl]-piperidin-3-yl]oxy-pyrimidin-2-yl]-methyl-amine]
59	COc1cc(C)c(S(=O)(=O)N2CC(Oc3ccnc(N(C)CCCN4CCC(c5ccccc5)(N(C)C)CC4)n3)C2)c(C)c1 [H_CC-074, 3-(4-dimethylamino-4-phenyl-piperidin-1-yl)-propyl-[4-[1-[(4-methoxy-2,6-dimethyl-phenyl)sulfonyl]-azetidin-3-yl]oxy-pyrimidin-2-yl]-methyl-amine]
75	COc1cc(C)c(S(=O)(=O)N2c3ccccc3C[C@H]2COc2ccnc(N(C)CCCN3CCC(c4ccccc4)(N(C)C)CC3)n2)c(C)c1 [H_CC-075, 3-(4-dimethylamino-4-phenyl-piperidin-1-yl)-propyl-[4-[[(2S)-1-[(4-methoxy-2,6-dimethyl-phenyl)sulfonyl]-2,3-dihydro-1H-indol-2-yl]-methoxy]-pyrimidin-2-yl]-methyl-amine]
69	COc1cc(C)c(S(=O)(=O)N2CC(Oc3ccnc(N4CCC(O)(c5cccnc5)CC4)n3)C2)c(C)c1 [H_CC-076, 1-[4-[1-[(4-methoxy-2,6-dimethyl-phenyl)sulfonyl]-azetidin-3-yl]oxy-pyrimidin-2-yl]-4-pyridin-3-yl-piperidin-4-ol]
58	COc1cc(C)c(S(=O)(=O)N2CC(Oc3ccnc(N4CCCN(Cc5ccccn5)CC4)n3)C2)c(C)c1 [H_CC-077, 1-[4-[1-[(4-methoxy-2,6-dimethyl-phenyl)sulfonyl]-azetidin-3-yl]oxy-pyrimidin-2-yl]-4-(pyridin-2-yl-methyl)-[1,4]diazepan]
77	COc1cc(C)c(S(=O)(=O)N2CCCCC2COc2ccnc(N3CCCC3Cc3ccccn3)n2)c(C)c1 (centres unmarked) [H_CC-078, 4-[[1-[(4-methoxy-2,6-dimethyl-phenyl)sulfonyl]-piperidin-2-yl]-methoxy]-2-[2-(pyridin-2-yl-methyl)-pyrrolidin-1-yl]-pyrimidine]
73	COc1cc(C)c(S(=O)(=O)N2CCCCC2COc2ccnc(N3CCC(Oc4ccccn4)CC3)n2)c(C)c1 (centres unmarked) [H_CC-079, 4-[[1-[(4-methoxy-2,6-dimethyl-phenyl)sulfonyl]-piperidin-2-yl]-methoxy]-2-(4-pyridin-2-yloxy-piperidin-1-yl)-pyrimidine]
61	COc1cc(C)c(S(=O)(=O)N2CCCCC2COc2ccnc(N3CCC(C)(N4CCOCC4)CC3)n2)c(C)c1 (centres unmarked) [H_CC-081, 4-[1-[4-[[1-[(4-methoxy-2,6-dimethyl-phenyl)sulfonyl]-piperidin-2-yl]-methoxy]-pyrimidin-2-yl]-4-methyl-piperidin-4-yl]-morpholine]
72	COc1cc(C)c(S(=O)(=O)N2CCCCC2COc2ccnc(N3CCC(CCCN4CCCC4)(c4cccnc4)CC3)n2)c(C)c1 (centres unmarked) [H_CC-082, 4-[[1-[(4-methoxy-2,6-dimethyl-phenyl)sulfonyl]-piperidin-2-yl]-methoxy]-2-[4-pyridin-3-yl-4-(3-pyrrolidin-1-yl-propyl)piperidin-1-yl]-pyrimidine]
59	COc1cc(C)c(S(=O)(=O)N2CCCCC2COc2ccnc(N3CCC(O)(c4ccccn4)CC3)n2)c(C)c1 (centres unmarked) [H_CC-083, 1-[4-[[1-[(4-methoxy-2,6-dimethyl-phenyl)sulfonyl]-piperidin-2-yl]-methoxy]-pyrimidin-2-yl]-4-pyridin-2-yl-piperidin-4-ol]
55	COc1cc(C)c(S(=O)(=O)N2CCC[C@@H]2COc2ccnc(N3CCCC3Cc3ccccn3)n2)c(C)c1 (stereo partly drawn) [H_CC-084, 4-[[(2R)-1-[(4-methoxy-2,6-dimethyl-phenyl)sulfonyl]-pyrrolidin-2-yl]-methoxy]-2-[2-(pyridin-2-yl-methyl)-pyrrolidin-1-yl]-pyrimidine]
70	COc1cc(C)c(S(=O)(=O)N2CCC[C@H]2COc2ccnc(N3CCC(c4ccccc4)(N(C)C)CC3)n2)c(C)c1 [H_CC-085, [1-[4-[[(2S)-1-[(4-methoxy-2,6-dimethyl-phenyl)sulfonyl]-pyrrolidin-2-yl]-methoxy]-pyrimidin-2-yl]-4-phenyl-piperidin-4-yl]-dimethyl-amine]
66	COc1cc(C)c(S(=O)(=O)N2CCC[C@H]2COc2ccnc(N3CCC(c4cccs4)(N(C)C)CC3)n2)c(C)c1 [H_CC-086, [1-[4-[[(2S)-1-[(4-methoxy-2,6-dimethyl-phenyl)sulfonyl]-pyrrolidin-2-yl]-methoxy]-pyrimidin-2-yl]-4-thiophen-2-yl-piperidin-4-yl]-dimethyl-amine]
57	COc1cc(C)c(S(=O)(=O)N(C)CCOc2ccnc(N3CCCC3Cc3ccccn3)n2)c(C)c1 (centres unmarked) [H_CC-087, 4-methoxy-N,2,6-trimethyl-N-[2-[2-[2-(pyridin-2-yl-methyl)-pyrrolidin-1-yl]-pyrimidin-4-yl]oxy-ethyl]-benzenesulfonic acid amide]
67	COc1cc(C)c(S(=O)(=O)N2CCC[C@H]2COc2ccnc(N3CCCC3Cc3ccccn3)n2)c(C)c1 (stereo partly drawn) [H_CC-088, 4-[[(2S)-1-[(4-methoxy-2,6-dimethyl-phenyl)sulfonyl]-pyrrolidin-2-yl]-methoxy]-2-[2-(pyridin-2-yl-methyl)-pyrrolidin-1-yl]-pyrimidine]
58	COc1cc(C)c(S(=O)(=O)N(C)CCOc2ccnc(N(C)CCN3CCC(Oc4ccncc4)CC3)n2)c(C)c1 [H_CC-089, 4-methoxy-N,2,6-trimethyl-N-[2-[2-[methyl-[2-(4-pyridin-4-yloxy-piperidin-1-yl)-ethyl]-amino]-pyrimidin-4-yl]oxy-ethyl]benzenesulfonic acid amide]
83	COc1cc(C)c(S(=O)(=O)N(C)CCOc2ccnc(N3CCC(OCCN4CCCC4)(c4cccc(F)c4)CC3)n2)c(C)c1 [H_CC-090, N-[2-[2-[4-(3-fluorophenyl)-4-(2-pyrrolidin-1-yl-ethoxy)-piperidin-1-yl]-pyrimidin-4-yl]oxy-ethyl]-4-methoxy-N,2,6-trimethyl-benzenesulfonic acid amide]
73	COc1cc(C)c(S(=O)(=O)N2CCCCC2COc2ccnc(N3CCC(c4cccc(F)c4)(N4CCN(C)CC4)CC3)n2)c(C)c1 (centres unmarked) [H_CC-091, 2-[4-(3-fluorophenyl)-4-(4-methyl-piperazin-1-yl)-piperidin-1-yl]-4-[[1-[(4-methoxy-2,6-dimethyl-phenyl)sulfonyl]-piperidin-2-yl]-methoxy]-pyrimidine]
50	COc1cc(C)c(S(=O)(=O)N2CCC[C@H]2COc2ccnc(N3CCC(OCCN4CCCC4)(c4cccc(F)c4)CC3)n2)c(C)c1 [H_CC-092, 2-[4-(3-fluorophenyl)-4-(2-pyrrolidin-1-yl-ethoxy)-piperidin-1-yl]-4-[[(2S)-1-[(4-methoxy-2,6-dimethyl-phenyl)sulfonyl]-pyrrolidin-2-yl]-methoxy]-pyrimidine]

Source: patent US8269000B2, “Substituted pyrimidine and triazine compounds” (Gruenenthal GmbH, priority 2008, dated 2012)
